Reference: publication PMC7400577 (Scientific Reports, 2020)
Residue numbers refer to the chain shown, from its start. Read-outs that look alike come from different tables or passages of the source.

Columns and labels:
hGAT3 wt = biological target: T1, hGAT3 wt (Homo sapiens, UniProt P48066); experiment: [3H]GABA uptake inhibition at wt hGAT3 transiently expressed in tsA201 cells; format: cell-based; settings: 30 nM [3H]GABA, transient expression
T1 construct: expressed in transfected cells; host or cells: tsA201 cells, transient (PolyFect), pcDNA5/FRT vector
T1 sequence (P48066 1-632): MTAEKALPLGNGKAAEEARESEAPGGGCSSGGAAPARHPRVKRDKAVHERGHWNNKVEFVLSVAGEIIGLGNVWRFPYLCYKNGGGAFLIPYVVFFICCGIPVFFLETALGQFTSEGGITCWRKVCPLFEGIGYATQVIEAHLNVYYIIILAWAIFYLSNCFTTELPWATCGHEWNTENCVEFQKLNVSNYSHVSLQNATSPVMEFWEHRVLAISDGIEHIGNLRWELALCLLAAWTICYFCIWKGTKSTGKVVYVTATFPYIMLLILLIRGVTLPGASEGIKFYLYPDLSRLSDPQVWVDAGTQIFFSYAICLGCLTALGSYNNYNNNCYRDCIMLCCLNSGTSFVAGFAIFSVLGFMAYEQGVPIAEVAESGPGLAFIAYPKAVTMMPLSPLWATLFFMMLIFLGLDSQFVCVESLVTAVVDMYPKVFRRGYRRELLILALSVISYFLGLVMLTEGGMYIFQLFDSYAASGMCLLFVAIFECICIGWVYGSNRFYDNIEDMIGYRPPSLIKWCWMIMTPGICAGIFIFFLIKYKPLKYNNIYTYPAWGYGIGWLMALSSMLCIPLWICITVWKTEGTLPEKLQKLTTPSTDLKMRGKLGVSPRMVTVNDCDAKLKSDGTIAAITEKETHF

hGAT3 L314Q = biological target: T2, hGAT3 L314Q (Homo sapiens, UniProt P48066, L314Q); experiment: [3H]GABA uptake inhibition at hGAT3 L314Q transiently expressed in tsA201 cells; format: cell-based; settings: 30 nM [3H]GABA, transient expression
T2 construct: expressed in transfected cells; host or cells: tsA201 cells, transient (PolyFect), pcDNA5/FRT vector
T2 sequence (P48066 1-632 L314Q): T1 sequence (P48066 1-632) with L314Q

BGT1 = settings: competitive BGT1 inhibitor; cited from earlier work

IC50 (hGAT3 wt; read-out: IC50 GAT3 wt) [µM] | IC50 (hGAT3 wt; read-out: pIC50 ± S.E.M. GAT3 wt (converted)) [µM] | IC50 (hGAT3 L314Q; read-out: IC50 GAT3 L314Q) [µM] | IC50 (hGAT3 L314Q; read-out: pIC50 ± S.E.M. GAT3 L314Q (converted)) [µM] | SMILES | IC50 (BGT1) [µM]
8.2 | 7.94 | 5.2 | 5.13 | NCCCC(=O)O [GABA, γ-Aminobutyric acid, reference compound] | 
 |  |  |  | N[C@@]12CC[C@H](C(=O)O)[C@@H]1C2 [compound 1] | 0.59
